Earlier results as cited in patent publication US20220323393A1, “COMPOSITIONS AND METHODS FOR TREATING AND/OR PREVENTING CARDIOVASCULAR DISEASE” (AMARIN PHARMACEUTICALS IRELAND LIMITED, priority 2010, published 2022).

System: subjects with AAMI
Conditions: 50 mg, Day 21 of repeated dosing

CN[C@@H](C)C/C=C/c1cncc(OC(C)C)c1 [Ispronicline]
Benefit to Power of Attention versus placebo: 61 ms | Power of Attention, mean (SD=61.22): -32.54 ms
